The subject of data set [1] is N. gonorrhoeae strain NCCP11945. As to the kind of experiment: Growth inhibition screen on GC solid media containing 1 mM candidate. The conditions noted are these: 1 mM candidate in GC agar media; Yes = strain NCCP11945 did not grow. In kind it is cell-based, Neisseria gonorrhoeae. As for the experimental part:
(§1) To find potential candidates, 37 organic acids, esters, and salts were tested in a two-tiered screening process. These candidates were chosen based on the carbon chain lengths of the fatty acids, the presence or absence of saturation, and modifications to represent a diverse selection of organic acid candidates. The first screen aimed to determine the ability of each compound to inhibit the growth of N. gonorrhoeae strain NCCP11945 at 1 mM in GC solid media (Table 1). This strain was chosen due to its relatively recent isolation, its antibiotic resistance profile, and the availability of a complete genome sequence. Those candidates able to inhibit the growth of N. gonorrhoeae strain NCCP11945 were investigated in a second assay. The second assay tested the ability of each compound to cause at least a 4-log reduction in viable bacteria at 1 mM with a 2-min exposure time (Table 1).
(§2) The well-characterized N. gonorrhoeae NCCP11945 strain ([36]) was used in the screening stage. Eight isolates obtained from Public Health England, representing circulating isolates from various European locations, were used in the log reduction assays. All isolates were cultured for 24 h prior to testing by plating on GC solid medium (Oxoid Limited, Hampshire, United Kingdom) with Kellogg supplements and incubation at 37°C and 5% CO2 ([37]).

Data set [2] shares this test system. As to the kind of experiment: Log reduction assay in GC broth, 2-min exposure. It is filed as cell-based, Neisseria gonorrhoeae. The conditions noted are these: for log reduction at 1000 µM: Neisseria gonorrhoeae, NCCP11945, 2 min, 1 mM, read-out: Log reduction at 1 mM (calculated log reduction in viable bacteria); for log reduction at 1000 µM / Log reduction at 1 mM (calculated log reduction in viable bacteria): maximum score 6 = all cells killed. As for the experimental part: as §1
(§3) Log reductions were done as described by Bergsson and coworkers ([18]). Briefly, cells were suspended in GC broth (18 g/liter GC base [Oxoid, Limited] with added defined supplements) to an optical density at 520 nm of 0.3, which is approximately equivalent to 10^7 to 10^8 cells per ml ([38]). […] The contents of the tubes were then mixed at room temperature for 2 min and immediately diluted in a 10-fold dilution series to 10^−4. The dilutions were plated by spreading 10 µl on a quarter of a plate; a 100-µl neat solution was also plated. Plates were then incubated at 37°C for 48 h, with all samples plated in duplicate. […] Additional testing at lower concentrations was also done on the eight clinical isolates of European origin.

Data set [3] deals with nine gonococcal isolates (strain NCCP11945 and eight isolates from Public Health England). As to the kind of experiment: Minimum bactericidal concentration by log reduction against nine gonococcal isolates. In kind it is cell-based, Neisseria gonorrhoeae. The settings on record: for Killing of all gonococcal cells for all isolates: 1 mM; for MBC: lowest concentration giving mean log reduction above 4 from a 2-min exposure.
Excerpt: The seven candidates were further tested against nine gonococcal isolates, including strain NCCP11945 and eight isolates from Public Health England, to find their minimal bactericidal concentration (MBC). This was defined as the lowest concentration tested to give an average 4-log10 reduction in bacterial count after a 2-min exposure. […] Any candidate that killed all gonococcal cells in the cell suspension was given a log reduction score of six.
as §2, §3

In the next data set the test system is bovine RBCs. As to the kind of experiment: Red blood cell (RBC) lysis assay. It is filed as cell-based. The conditions noted are these: H50 = concentration to lyse 50% of RBCs; MBC from Table 1. The protocol: Whole bovine blood was obtained from a local slaughter house (ABP), adding 90 ml blood to 10 ml 110 mM trisodium citrate anticoagulant. RBCs were isolated the same day. The RBCs were washed by three repeats of centrifugation (1,500 × g for 10 min) and resuspension in phosphate-buffered saline (PBS) with 10 mM glucose (PBSG). Testing was done following the guidelines of the European Union Reference Laboratory for alternatives to animal testing (EURL-ECVAM) ([22]). The organic acids were solubilized in dimethyl sulfoxide (DMSO) and diluted to a maximum DMSO concentration of 10%. In a 2-ml centrifuge tube, 750 µl of the sample was added to 250 µl RBCs. Controls used in the assay were a complete lysis control (deionized water) and a fragility control (PBSG–10% DMSO). Samples were shaken at room temperature for 1 h and then centrifuged at 14,000 × g for 2 min. An aliquot of 750 µl of the supernatant was taken and its absorbance at 451 nm measured.

The subject of data set [4] is gonococcal cells (isolate NCCP 11945). As to the kind of experiment: Log reduction in artificial tear fluid with or without calcium chloride. It is filed as cell-based, Neisseria gonorrhoeae. As for the experimental part: The antigonococcal properties of the seven selected fatty acids were tested in artificial tear fluid, which contained calcium chloride. The addition of 1 mM lauric acid, tridecanoic acid, or sodium dodecanoate gave no reduction in bacterial cell number after exposure, in contrast to the results seen when they were tested in culture medium (Fig. 2). […] This was most likely due to the negative effect of calcium on the aqueous solubility of these candidates.
Artificial tear fluid was made as described by Mirejovsky and others ([39]) with or without calcium chloride. […] As with the previous log reductions, 10^7 gonococcal cells (isolate NCCP 11945) were suspended in GC broth. The cell suspension was centrifuged to remove the culture medium, and the bacteria were resuspended in the tear fluid. This was then added to the concentrated organic acid candidates. The cells were then enumerated again after 2 min of exposure to estimate any reduction in cell number due to the exposure to the organic acid.

Another data set relates to bovine cornea. As to the kind of experiment: Bovine corneal opacity and permeability (BCOP) test. As for the experimental part:
Bovine eyes were collected from a local slaughter house (ABP, Guildford, Surrey, United Kingdom) and were transported in cold saline solution for testing at the laboratory. Each eye was first visually examined for signs of damage before use. The test was conducted as detailed by Abdelkader and coworkers ([21]). The exposure time of the test substances was 30 s. The selected bactericidal compounds were tested at 1 mM in saline solution, with a corresponding vehicle control (1% ethanol–saline solution) also performed. […] The test area of the cornea was then washed with 10 ml saline solution. Corneal damage to the test area was assessed by fluorescein staining and examination under a cobalt blue filter. Pathological scoring based on opacity, epithelial integrity, and epithelial detachment was done in accordance with previous publications ([19]). Each of the seven lead candidates was tested in triplicate, and each test was performed on a separate day using a different batch of eyeballs. Corneal histology was done as outlined by Abdelkader and coworkers ([21]) by evaluating the damage to the epithelial layer and stroma of the cornea after hematoxylin and eosin staining.

≈ marks a conversion by molar mass, not a printed value. Like-named read-outs stand apart in the source and are kept apart here.

Usually MBC stands for the smallest concentration meeting the test's criterion for killing.

With `CCCCCCCC(=O)OCC(O)CO` (racemic) [1-octanoyl-rac-glycerol], the Growth inhibition entry in data set [1] is “Yes”. In data set [2], the “Log reduction at 1 mM: at least a 4-log reduction in viable bacteria (Yes/No)” value (from here on “Log reduction at 1 mM … (Yes/No)”) was “No” and the log reduction at 1000 µM is 0.

For the compound `O=C(O)CCCCC(=O)O` [Adipic acid], the Growth inhibition result in data set [1] is reported as “No”.

As to `CCCCC/C=C\C/C=C\C/C=C\C/C=C\CCCC(=O)O` [Arachidonic acid], the Growth inhibition result in data set [1] is reported as “Yes”.

Take `O=C(O)CCCCCCCC(=O)O` [Azelaic acid]: in data set [1], the Growth inhibition entry is “No”.

Take `CCCCCCCCCC(=O)O` [Capric acid/decanoic acid]: the Growth inhibition entry in data set [1] is listed as “No”.

As for `CCCCCCCC(=O)O` [Caprylic/octanoic acid], the Growth inhibition entry in data set [1] was “No”.

On to `CCCCCCCC/C=C/CCCCCCCC(=O)O` [Elaidic acid], for which the Growth inhibition entry in data set [1] was “Yes”. Also, in data set [2], the “Log reduction at 1 mM … (Yes/No)” value was “No” and the log reduction at 1000 µM was 0.5.

As for `CCCCCCCC/C=C\CCCCCCCCCCCC(=O)O` [Erucic acid], the Growth inhibition result in data set [1] was “Yes”. For the same compound, in data set [2], the “Log reduction at 1 mM … (Yes/No)” value is recorded as “No” and the log reduction at 1000 µM is 0.

With `CCCCCCCCCCCCCCCCC(=O)O` [Heptadecylic acid], the Growth inhibition entry in data set [1] is listed as “No”.

For the compound `CCCCCCCCCCCCCC(=O)OC(C)C` [Isopropyl myristate], the Growth inhibition entry in data set [1] is given as “No”.

For `CCCCCCCCCCCCCCCC(=O)OC(C)C` [Isopropyl palmitate], in data set [1], the Growth inhibition result is given as “No”.

In the case of `CCCCC/C=C\C/C=C\CCCCCCCC(=O)O` [Linoleic acid], the Growth inhibition entry in data set [1] was “Yes”. For the same compound, in data set [2], the “Log reduction at 1 mM … (Yes/No)” value is “No” and the log reduction at 1000 µM was 1.6.

For the compound `CCCCCCCCCCCCCC(=O)OCC(O)CO` (centres unmarked) [Monomyristin], in data set [1], the Growth inhibition result was “Yes”. Further, in data set [2], the “Log reduction at 1 mM … (Yes/No)” value is recorded as “No” and the “Log reduction at 1 mM (calculated log reduction in viable bacteria)” value is on record as 0.6 log10.

With `CCCCCCCCCCCCCC(=O)O` [Myristic acid], in data set [1], the Growth inhibition result is listed as “Yes”. For the same compound, in data set [2], the “Log reduction at 1 mM … (Yes/No)” value was “No” and the log reduction at 1000 µM was 1.5.

In the case of `CCCCCCCC/C=C\CCCCCCCC(=O)O` [Oleic acid], the Growth inhibition entry in data set [1] is reported as “Yes”. Further, in data set [2], the “Log reduction at 1 mM … (Yes/No)” value is “No” and the log reduction at 1000 µM was 1.

Turning to `CCCCCCCCCCCCCCCC(=O)O` [Palmitic acid], the Growth inhibition entry in data set [1] is recorded as “No”.

On to `CCCCCC/C=C\CCCCCCCC(=O)O` [Palmitoleic acid], for which the Growth inhibition result in data set [1] was “Yes”. In addition, in data set [2], the “Log reduction at 1 mM … (Yes/No)” value is “Yes” and the log reduction at 1000 µM was over 6. The “Killing of all gonococcal cells for all isolates” value in data set [3] (2 min) is listed as “did not”. In data set [3] (Neisseria gonorrhoeae, 2 min, read-out: MBC), the MBC stood at 500 µM (≈ 127 µg/mL). Moreover, the “H50 concentration relative to MBC” value with bovine RBCs is given as “lower than their minimum bactericidal concentration”.

For `CCCCCCCCCCCCCCC(=O)O` [Pentadecylic acid], in data set [1], the Growth inhibition result is recorded as “Yes”. Further, in data set [2], the “Log reduction at 1 mM … (Yes/No)” value is listed as “No” and the “Log reduction at 1 mM (calculated log reduction in viable bacteria)” value is given as 0.5 log10.

Turning to `O=C(O)CCCCCC(=O)O` [Pimelic acid], the Growth inhibition entry in data set [1] is given as “No”.

For the compound `CCCCCC[C@@H](O)C/C=C\CCCCCCCC(=O)O` [Ricinoleic acid], the Growth inhibition result in data set [1] was “Yes”. In data set [2], the “Log reduction at 1 mM … (Yes/No)” value is given as “No” and the “Log reduction at 1 mM (calculated log reduction in viable bacteria)” value is reported as 3.5 log10.

On to `O=C(O)CCCCCCCCC(=O)O` [Sebacic acid], for which, in data set [1], the Growth inhibition result was “No”.

For the compound `CCCCCCCCCCCC(=O)[O-].[Na+]` [Sodium dodecanoate], in data set [1], the Growth inhibition entry is listed as “Yes”. Also, in data set [2], the “Log reduction at 1 mM … (Yes/No)” value was “Yes” and the “Log reduction at 1 mM (calculated log reduction in viable bacteria)” value is given as over 6 log10. The “Killing of all gonococcal cells for all isolates” value in data set [3] (2 min) was “killed all gonococcal cells for all isolates”. The compound also had an MBC in data set [3] of 750 µM. Further, the “Reduction in bacterial cell number in artificial tear fluid containing calcium chloride” value in data set [4] (1 mM candidate, 2 min, with calcium) is on record as “no reduction”. For the same compound, the “Antigonococcal properties in tear fluid made without calcium chloride” value in data set [4] (1 mM candidate, 2 min, without calcium) is on record as “completely restored”. In addition, the “Effect of calcium in artificial tear fluid on antimicrobial effect” value in data set [4] (calcium 1 mM, Fig. 2) is reported as “inactivated”. Moreover, in the data set with bovine cornea (1 mM in saline solution, 30 s exposure, triplicate), the “Mean cumulative BCOP score” value is given as “lower than 0.5”. Also, the “Fluorescein staining of cornea” value with bovine cornea (1 mM, around rubber application ring) is “any sign of fluorescein staining”. Further, the BCOP irritancy classification entry with bovine cornea (candidates 1 mM in saline, controls 0.5 M NaOH, 100% acetone, 30 s exposure) is recorded as “nonirritants”.

In the case of `CCCCCCCCCCCCCC(=O)[O-].[Na+]` [Sodium myristate], in data set [1], the Growth inhibition result is listed as “Yes”. Also, in data set [2], the “Log reduction at 1 mM … (Yes/No)” value is on record as “No” and the “Log reduction at 1 mM (calculated log reduction in viable bacteria)” value was 0.5 log10.

Turning to `C/C=C/C=C/C(=O)O` [Sorbic acid], the Growth inhibition result in data set [1] is given as “No”.

On to `CCCCCCCCCCCCCCCCCC(=O)O` [Stearic acid], for which the Growth inhibition result in data set [1] is on record as “No”.

On to `O=C(O)CCCCCCC(=O)O` [Suberic acid], for which, in data set [1], the Growth inhibition result is “No”.

`O=C(O)CCC(=O)O` [Succinic acid]: in data set [1], the Growth inhibition result is “No”.

`CCCCCCCCCCC(=O)O` [Undecanoic acid]: in data set [1], the Growth inhibition entry is “Yes”. Moreover, in data set [2], the “Log reduction at 1 mM … (Yes/No)” value was “No” and the log reduction at 1000 µM is 0.2.

The values are drawn from publication PMC5527305, “Prevention of Ophthalmia Neonatorum Caused by Neisseria gonorrhoeae Using a Fatty Acid-Based Formulation” (mBio, 2017).
